Test results reported in paper PMC9961948, “Interaction of Amphipathic Peptide from Influenza Virus M1 Protein with Mitochondrial Cytochrome Oxidase” (International Journal of Molecular Sciences, 2023).
Where two headings read alike, the source gives them in different places.

Experiments:
[1] = target: T1, cytochrome c oxidase (CcO) purified from heart mitochondria (Bos taurus, UniProt P00396+P07471+P68530); assay: Cytochrome oxidase activity of solubilized mitochondrial CcO (oxygen uptake); format: biochemical
T1 construct: Cytochrome c oxidase was purified from the heart mitochondria of Bos taurus; from tissue; host or cells: bovine heart mitochondria

[2] = Permeabilization of calcein-loaded asolectin liposomes (calcein release); conditions: 5 μM peptide
[3] = system: cytochrome c oxidase (CcO), peroxidase activity; assay: Peroxidase partial activity of solubilized CcO (peroxidation of ferrocyanide); format: biochemical, Bos taurus; conditions: 50 μM P4; 0.6 μM solubilized CcO, 0.2 mM ferrocyanide with equimolar ferricyanide, 4 mM H2O2
Method: The two-electron reduction of H2O2 to water refers to the peroxidase phase of the CcO catalytic cycle. As shown previously, this reaction can be carried out aerobically using a high-potential electron donor [51]. We followed this partial activity of CcO in the presence of a ferro/ferricyanide pair at E’ ≈ +420 mV when the oxidase reaction becomes negligible. Peroxidation of ferrocyanide by CcO was recorded spectrophotometrically (Figure 3).
Peroxidation of 0.2 mM ferrocyanide (against the background of equimolar ferricyanide) was monitored at 0.6 μM solubilized CcO. The reaction was triggered by the addition of 4 mM H2O2 (shown by the arrow). […] The initial jump upon H2O2 addition reflects spectral response in the γ-band of heme a3 upon oxoferryl intermediate formation.
Peroxidase partial activity of CcO was assayed in BM following peroxidation of ferrocyanide by the absorption difference at 420 nm vs. 500 nm references, using the spectrophotometer SLM Aminco DW-2000 (SLM Instruments, Urbana, IL, USA) in a dual-wavelength mode. In order to obtain a redox buffer with Em ≈ 420 mV, equal amounts of ferri- and ferrocyanide were mixed. No ferrocyanide oxidase activity was observed until the peroxidase reaction was initiated by the addition of H2O2. The reaction was carried out in a standard semi-micro cuvette (Hellma, Mullheim, Germany) with blackened side walls and a 10 mm light pathway.

[4] = system: CcO reconstituted into asolectin vesicles; assay: CcO activity in asolectin proteoliposomes; format: biochemical, Bos taurus; conditions: peptide up to 150 μM
[5] = target: T2, CcO in rat liver mitochondria (Rattus norvegicus, UniProt P00406+P05503); assay: CcO activity in the mitochondrial membrane (respiration of rat liver mitochondria); format: biochemical
T2 construct: Rat liver mitochondria were isolated by differential centrifugation; from tissue; host or cells: rat liver mitochondria
T2 sequence (P00406 whole entry, other chains not shown): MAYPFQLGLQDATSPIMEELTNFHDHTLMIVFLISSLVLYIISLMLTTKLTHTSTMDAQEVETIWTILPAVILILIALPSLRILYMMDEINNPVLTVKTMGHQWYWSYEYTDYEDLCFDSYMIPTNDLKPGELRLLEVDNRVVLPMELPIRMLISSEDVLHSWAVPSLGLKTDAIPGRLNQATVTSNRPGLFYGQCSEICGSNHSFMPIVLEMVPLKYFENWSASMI

For Ac-RTKLWEMLVELGNMDKAVKLWRKLKR-NH2 [P4], the “final rate of the oxidase reaction, % of the initial” value ([1]; 20 μM P4 added in the course of the reaction, constant level 1.5 min later, solubilized CcO 20 nM) was no more than 15%, the Ki ([1]; solubilized bovine heart CcO 20 nM, oxygen uptake, Clark electrode, 25 °C, BM 50 mM Hepes/Tris pH 7.6, 50 mM KCl, 1 mM (0.05%) DM, 5 mM ascorbate, 0.1 mM TMPD, 10 μM cytochrome c, fit by Equation (1), read-out: Inhibition of CcO, Solubilized, Ki(app)) was 0.0076 mM and the Ki ([1]; solubilized mitochondrial CcO, intercept of linear dependence of Ki(app) on [DM], read-out: true Ki (extrapolation of DM to zero)) was 0.003 mM. For the same substance, the “time to reach the 100% level of calcein release” value ([2]; 100% = after Triton X-100 0.1%) was 3 min, the “t1/2 of fluorescence increase (calcein release)” value ([2]; liposomes 0.1 mg lipid/mL, 20 mM MOPS/Tris pH 7.3, 0.2 mM EDTA, fluorescence 520 nm (excitation 490 nm)) was ~ 12 s and the “rate of peroxidase reaction (ferricyanide formation) upon addition of peptide” value [3] was “did not change”. The “oxidase reaction rate of CcO in proteoliposomes upon addition of peptide” value [4] was “does not change the reaction rate” and the “inhibitor concentration up to which the rate of the oxidase reaction remains almost unchanged” value [5] was ~ 10 μM.
